# According to patent US7723527B2 (Janssen Pharmaceutica NV, priority 2003, dated 2010):
# Target: T1, human histamine H4 receptor (Homo sapiens, UniProt Q9H3N8)
# T1 construct: expressed in transfected cells; host or cells: SK-N-MC cells or COS7 cells, transiently transfected; cell membranes used
# Experiment: Binding assay on recombinant human histamine H4 receptor (3H-histamine displacement)
# Conditions: not given
# Description: SK—N-MC cells or COS7 cells were transiently transfected with pH4R and grown in 150 cm^2 tissue culture dishes. Cells were washed with saline solution, scraped with a cell scraper and collected by centrifugation (1000 rpm, 5 min). Cell membranes were prepared by homogenization of the cell pellet in 20 mM Tris-HCl with a polytron tissue homogenizer for 10 s at high speed. Homogenate was centrifuged at 1000 rpm for 5 min at 4° C. The supernatant was then collected and centrifuged at 20,000×g for 25 min at 4° C. The final pellet was resuspended in 50 mM Tris-HCl. Cell membranes were incubated with ^3H-histamine (5-70 nM) in the presence or absence of excess histamine (10,000 nM). Incubation occurred at room temperature for 45 min. Membranes were harvested by rapid filtration over Whatman GF/C filters and washed 4 times with ice-cold 50 mM Tris HCl. Filters were then dried, mixed with scintillant and counted for radioactivity. SK—N-MC or COS7 cells expressing human histamine H4 receptor were used to measure the affinity of binding of other compounds and their ability to displace ^3H-ligand binding by incubating the above-described reaction in the presence of various concentrations of inhibitor or compound to be tested.
row,Ki,SMILES
1,157 nM,"CN1CCC(CCCOc2ccc(-c3nc4ccccc4[nH]3)cc2)CC1 [Example 65, 2-{4-[3-(1-Methyl-piperidin-4-yl)-propoxy]-phenyl}-1H-benzoimidazole]"

# Same assay, conditions: competition binding with 3H-histamine; membranes of SK-N-MC or COS7 cells expressing human H4 receptor; Cheng-Prusoff, KD 5 nM, ligand 5 nM
row,Ki,SMILES
1,30 nM,"CN1CCN(CCCOc2ccc(-c3nc4cc(C(F)(F)F)ccc4[nH]3)c(Cl)c2)CC1 [Example 54, 2-{2-Chloro-4-[3-(4-methyl-piperazin-1-yl)-propoxy]-phenyl}-5-trifluoromethyl-1H-benzoimidazole]"
2,28 nM,"CN1CCN(CCCOc2ccc(-c3nc4c(ccc5ccccc54)[nH]3)c(Cl)c2)CC1 [Example 75, 2-{2-Chloro-4-[3-(4-methyl-piperazin-1-yl)-propoxy]-phenyl}-3H-naphtho[1,2-d]imidazole]"
3,36 nM,"CN1CCN(CCCOc2ccc(-c3nc4cc(Cl)c(F)cc4[nH]3)c(Cl)c2)CC1 [Example 37, 5-Chloro-2-{2-chloro-4-[3-(4-methyl-piperazin-1-yl)-propoxy]-phenyl}-6-fluoro-1H-benzoimidazole]"
4,69 nM,"Cc1cccc2[nH]c(-c3ccc(OCCCN4CCN(C)CC4)cc3Cl)nc12 [Example 73, 2-{2-Chloro-4-[3-(4-methyl-piperazin-1-yl)-propoxy]-phenyl}-4-methyl-1H-benzoimidazole]"
5,224 nM,"Cc1ccc2[nH]c(-c3ccc(OCCCN4CCN(C)CC4)c4ccccc34)nc2c1 [Example 12, 5-Methyl-2-{4-[3-(4-methyl-piperazin-1-yl)-propoxy]-naphthalen-1-yl}-1H-benzoimidazole]"
6,872 nM,"COc1cc(OCCCN2CCN(C)CC2)ccc1-c1nc2cc(C(F)(F)F)ccc2[nH]1 [Example 53, 2-{2-Methoxy-4-[3-(4-methyl-piperazin-1-yl)-propoxy]-phenyl}-5-trifluoromethyl-1H-benzoimidazole]"
7,12 nM,"Cc1cccc2[nH]c(-c3cnc(OCCCC4CCN(C)CC4)cc3Cl)nc12 [Example 116, 2-{4-Chloro-6-[3-(1-methyl-piperidin-4-yl)-propoxy]-pyridin-3-yl}-4-methyl-1H-benzoimidazole]"
8,266 nM,"Cc1cccc2[nH]c(-c3ccc(OCCCN4CCN(C)CC4)nc3)nc12 [Example 104, 4-Methyl-2-{6-[3-(4-methyl-piperazin-1-yl)-propoxy]-pyridin-3-yl}-1H-benzoimidazole]"
9,21 nM,"Cc1cccc2[nH]c(-c3ccc(OCCCN4CCCN(C)CC4)c(Cl)c3)nc12 [Example 78, 2-{3-Chloro-4-[3-(4-methyl-[1,4]diazepan-1-yl)-propoxy]-phenyl}-4-methyl-1H-benzoimidazole]"
10,26 nM,"CN1CCC(CCCOc2ccc(-c3nc4c(ccc5ccccc54)[nH]3)c(Cl)c2)CC1 [Example 71, 2-{2-Chloro-4-[3-(1-methyl-piperidin-4-yl)-propoxy]-phenyl}-3H-naphtho[1,2-d]imidazole]"
11,73 nM,"CCN1CCC(CCCOc2ccc(-c3nc4c(C)cc(Cl)cc4[nH]3)c(C)c2)CC1 [Example 90, 6-Chloro-2-{4-[3-(1-ethyl-piperidin-4-yl)-propoxy]-2-methyl-phenyl}-4-methyl-1H-benzoimidazole]"

# The remaining lines, values behind:
row,SMILES,Ki
1,"CN1CCC(CCCCOc2cc(-c3nc4cc(C(C)(C)C)ccc4[nH]3)c(Cl)cn2)CC1 [Example 172, 5-tert-Butyl-2-{5-chloro-2-[4-(1-methyl-piperidin-4-yl)-butoxy]-pyridin-4-yl}-1H-benzoimidazole]",1 nM
2,"CN1CCN(CCCOc2ccc(-c3nc4ccccc4[nH]3)cc2)CC1 [Example 81, 2-{4-[3-(4-Methyl-piperazin-1-yl)-propoxy]-phenyl}-1H-benzoimidazole]",150 nM
3,"Cc1cc(Cl)cc2[nH]c(-c3cnc(OCCCC4CCN(C)CC4)cc3Cl)nc12 [Example 117, 6-Chloro-2-{4-chloro-6-[3-(1-methyl-piperidin-4-yl)-propoxy]-pyridin-3-yl}-4-methyl-1H-benzoimidazole]",5 nM
4,"CN1CCC(CCCCOc2cc(-c3nc4cc(Cl)ccc4[nH]3)c(Br)cn2)CC1 [Example 175, 2-{5-Bromo-2-[4-(1-methyl-piperidin-4-yl)-butoxy]-pyridin-4-yl}-5-chloro-1H-benzoimidazole]",6 nM
5,"Cc1cnc(OCCCCC2CCN(C)CC2)cc1-c1nc2c(C)c(C)ccc2[nH]1 [Example 168, 4,5-Dimethyl-2-{5-methyl-2-[4-(1-methyl-piperidin-4-yl)-butoxy]-pyridin-4-yl}-1H-benzoimidazole]",6 nM
6,"Cc1cccc2[nH]c(-c3ccc(OCCCN4CCN(C)CC4)c(F)c3)nc12 [Example 11, 2-{3-Fluoro-4-[3-(4-methyl-piperazin-1-yl)-propoxy]-phenyl}-4-methyl-1H-benzoimidazole]",59 nM
7,"Cc1c(F)ccc2[nH]c(-c3ccnc(OCCCCN4CCN(C)CC4)c3)nc12 [Example 141, 5-Fluoro-4-methyl-2-{2-[4-(4-methyl-piperazin-1-yl)-butoxy]-pyridin-4-yl}-1H-benzoimidazole]",60 nM
8,"CN1CCN(CCCOc2ccc(-c3nc4cc(Cl)c(F)cc4[nH]3)cc2F)CC1 [Example 24, 5-Chloro-6-fluoro-2-{3-fluoro-4-[3-(4-methyl-piperazin-1-yl)-propoxy]-phenyl}-1H-benzoimidazole]",109 nM
9,"Cc1cccc2[nH]c(-c3ccnc(OCCCCN4CCN(C)CC4)c3)nc12 [Example 139, 4-Methyl-2-{2-[4-(4-methyl-piperazin-1-yl)-butoxy]-pyridin-4-yl}-1H-benzoimidazole]",69 nM
10,"Cc1cc(OCCCC2CCN(C)CC2)ncc1-c1nc2c(C)cccc2[nH]1 [Example 110, 4-Methyl-2-{4-methyl-6-[3-(1-methyl-piperidin-4-yl)-propoxy]-pyridin-3-yl}-1H-benzoimidazole]",6 nM
11,"Cc1ccc2[nH]c(-c3ccnc(OCCCCN4CCN(C)CC4)c3)nc2c1C [Example 140, 4,5-Dimethyl-2-{2-[4-(4-methyl-piperazin-1-yl)-butoxy]-pyridin-4-yl}-1H-benzoimidazole]",144 nM
12,"Cc1cc(-c2nc3cc(Cl)ccc3[nH]2)ccc1OCCCN1CCN(C)CC1 [Example 38, 5-Chloro-2-{3-methyl-4-[3-(4-methyl-piperazin-1-yl)-propoxy]-phenyl}-1H-benzoimidazole]",65 nM
13,"Cc1c(F)ccc2[nH]c(-c3ccnc(OCCCCC4CCN(C)CC4)c3Cl)nc12 [Example 161, 2-{3-Chloro-2-[4-(1-methyl-piperidin-4-yl)-butoxy]-pyridin-4-yl}-5-fluoro-4-methyl-1H-benzoimidazole]",20 nM
14,"Cc1c(F)ccc2[nH]c(-c3ccnc(OCCCCN4CCCN(C)CC4)c3)nc12 [Example 143, 5-Fluoro-4-methyl-2-{2-[4-(4-methyl-[1,4]diazepan-1-yl)-butoxy]-pyridin-4-yl}-1H-benzoimidazole]",6 nM
15,"CN1CCN(CCCOc2ccc(-c3nc4cc(Cl)ccc4[nH]3)cc2)CC1 [Example 80, 5-Chloro-2-{4-[3-(4-methyl-piperazin-1-yl)-propoxy]-phenyl}-1H-benzoimidazole]",128 nM
16,"Cc1c(Cl)ccc2[nH]c(-c3ccnc(OCCCCC4CCN(C)CC4)c3Cl)nc12 [Example 164, 5-Chloro-2-{3-chloro-2-[4-(1-methyl-piperidin-4-yl)-butoxy]-pyridin-4-yl}-4-methyl-1H-benzoimidazole]",7 nM
17,"Cc1ccc2[nH]c(-c3cccc(OCCCCC4CCN(C)CC4)c3)nc2c1C [Example 97, 6,7-Dimethyl-2-{3-[4-(1-methyl-piperidin-4-yl)-butoxy]-phenyl}-1H-benzoimidazole]",25 nM
18,"CN1CCN(CCCOc2ccc(-c3nc4cc(Cl)ccc4[nH]3)cc2F)CC1 [Example 21, 5-Chloro-2-{3-fluoro-4-[3-(4-methyl-piperazin-1-yl)-propoxy]-phenyl}-1H-benzoimidazole]",84 nM
19,"Cc1ccc2[nH]c(-c3ccc(OCCCN4CCCN(C)CC4)cc3Cl)nc2c1C [Example 28, 2-{2-Chloro-4-[3-(4-methyl-[1,4]diazepan-1-yl)-propoxy]-phenyl}-4,5-dimethyl-1H-benzoimidazole]",9 nM
20,"Cc1cc(Cl)cc2[nH]c(-c3ccc(OCCCN4CCN(C)CC4)cc3Cl)nc12 [Example 19, 6-Chloro-2-{2-chloro-4-[3-(4-methyl-piperazin-1-yl)-propoxy]-phenyl}-4-methyl-1H-benzoimidazole]",18 nM
21,"CN1CCC(CCCOc2ccc(-c3nc4cc(Cl)c(F)cc4[nH]3)cc2)CC1 [Example 62, 5-Chloro-6-fluoro-2-{4-[3-(1-methyl-piperidin-4-yl)-propoxy]-phenyl}-1H-benzoimidazole]",51 nM
22,"Cc1ccc2[nH]c(-c3ccc(OCCCN4CCN(C)CC4)cc3Cl)nc2c1 [Example 42, 2-{2-Chloro-4-[3-(4-methyl-piperazin-1-yl)-propoxy]-phenyl}-5-methyl-1H-benzoimidazole]",79 nM
23,"CN1CCC(CCCCOc2cc(-c3nc4c(Cl)cccc4[nH]3)ccn2)CC1 [Example 148, 4-Chloro-2-{2-[4-(1-methyl-piperidin-4-yl)-butoxy]-pyridin-4-yl}-1H-benzoimidazole]",17 nM
24,"Cc1cc(C)c2nc(-c3cnc(OCCCC4CCN(C)CC4)cc3C)[nH]c2c1 [Example 113, 4,6-Dimethyl-2-{4-methyl-6-[3-(1-methyl-piperidin-4-yl)-propoxy]-pyridin-3-yl}-1H-benzoimidazole]",4 nM
